# Experimental data: patent US8603968B2, “Cyclic peptides comprising at least one aza-β3-aminoacyl residue and their uses” (Centre National de la Recherche Scientifique, priority 2007, dated 2013)
# Assays:
# sheep erythrocytes = experiment: Haemolytic activity on sheep erythrocytes; format: cell-based; settings: at the doses tested, 1 hour at 37° C.
# Procedure: The haemolytic activity of the pseudopeptides is tested on sheep blood cells. The sheep erythrocytes are washed three times with a phosphate buffer saline [PBS buffer (pH 7.4)] by 5 minutes' centrifugation at 900 g and the final pellet is suspended in PBS. For the concentration of the erythrocyte solution, a concentration of erythrocytes corresponding to OD540 nm is established, and for the control well 100% haemolysis in the presence of 0.8 Triton X-100. The solutions of the different pseudopeptides diluted in water (100 μL) are arranged in a 96-well plate. 50 μL, of PBS 2× buffer solution then 50 μL of sheep erythrocyte solution is added to these solutions in order to produce a final volume of 200 μL. The suspensions obtained are incubated for 1 hour at 37° C. The samples are then centrifuged at 500 g for 5 min. 130 μL of supernatant of each sample is transferred to a new 96-well plate. The release of haemoglobin is quantified by measuring the absorbance at 540 nm of the supernatant by means of a microplate reader. The controls corresponding to the absence of haemolysis (white) and 100% haemolysis involve, respectively, the addition of 100 μL of PBS buffer and 100 μL of a 2% Triton X-100 solution to the wells containing 100 μL of saline erythrocyte solution (50 μL of PBS 2× and 50 μL of blood cell solution). Each measurement is carried out in triplicate.
# Streptococcus aureus = experiment: Antibacterial activity in poor medium enriched with beef extract PBB (MIC, MBC); format: cell-based; settings: increasing doses (FIG. 3)
# Procedure: (§1) The tests were carried out on Gram-negative bacterial strains of Group 2 (pathogens): Escherichia coli, Salmonella thyphimurium, Pseudomonas aeruginosa, Klebsiella pneumonie and on Gram-positive strains: Bacillus megaterium (group 1) and […] (group 2).
# (§2) The bacteria are incubated in a PB poor medium in the case of the bacteria: Escherichia coli, Pseudomonas aeruginosa, Klebsiella pneumoniae, Bacillus megaterium and in a poor medium enriched with beef extract PBB in the case of two other bacteria: […] and Salmonella thyphimurium with increasing concentrations of peptides or analogues ranging from 1 to 320 μg/ml. This test is carried out in 96-well microplates. After incubation for 18 hours at 30° C. or 37° C., the optical density of the microplates is read at 595 nm in order to evaluate the bacterial growth and determine the minimum inhibitory concentration (MIC) for each molecule tested. Each measurement is performed in triplicate.
# (§3) Moreover, the minimum bactericidal concentration (MBC) is determined by plating the contents of the wells where there is an absence of bacterial growth on dishes containing rich media (Luria broth or (LB) or Brain Heart Infusion (BHi). The MBC corresponds to the concentration at which no bacterial colony is detected after incubation for 24 hours at 30 or 37° C.
# Salmonella thyphimurium = experiment: Antibacterial activity in poor medium enriched with beef extract PBB; format: cell-based; settings: increasing doses (FIG. 4)
# Procedure: as §1, §2, §3
# [1] = system: Gram-negative bacteria (E. coli to A. caviae); experiment: Antibacterial activity in TSB rich medium (MIC), Gram-negative bacteria; format: cell-based; settings: 48 hours, at the concentrations tested (0.78-100 μM)
# Procedure: The tests were carried out on Gram-negative bacterial strains: Escherichia coli ATCC 25922, Salmonella enterica ATCC 13076, Pseudomonas aeruginosa ATCC 27853, Klebsiella oxytoca CIP 7932, Enterobacter aerogenes ATCC 13048 and Aeromonas caviae ATCC 15468 and on Gram-positive strains: Staphylococcus aureus ATCC 25923, Enterococcus faecalis CIP 186, Streptococcus equinus ATCC 5623, Listeria monocytogenes SOR 100, Bacillus megaterium ATCC 10778, Lactococcus gaviae ATCC 43921, Micrococcus luteus ATCC 10240.
# The bacteria (10^5 CFU/mL) are incubated in a TSB (Tryptic Soy Broth) rich medium with increasing concentrations of cyclopseudopeptides (0.78, 3.12, 6.25, 12.5, 25, 50, 100 μM). This test is carried out in 96-well microplates. After incubation for 48 hours at 20° C. or 37° C., the optical density of the microplates is read at 595 nm in order to evaluate the bacterial growth and determine the minimum inhibitory concentration (MIC) for each molecule tested. Each measurement is carried out in triplicate.
# rabbit erythrocytes [2] = experiment: Haemolytic activity on rabbit erythrocytes; format: cell-based
# Procedure: The haemolytic activity of the pseudopeptides is tested on rabbit blood cells. Fresh rabbit erythrocytes are washed three times with a phosphate buffer saline [PBS buffer (pH 7.4)] by centrifugation for 5 min at 900 g and the final pellet is suspended in PBS. The NafNaf pseudopeptide solutions diluted in PBS (90 μL) are arranged in a 96-well plate. 90 μL of 2% rabbit erythrocyte solution (v/v) is added to these solutions to give a final volume of 180 μL and a concentration of 1% (v/v) blood cells. The suspensions obtained are incubated for 1 hour at 37° C. The samples are then centrifuged at 500 g for 5 min. 100 μL of supernatant of each sample is transferred into a new 96-well plate. The release of the haemoglobin is quantified by measuring the absorbance at 415 nm of the supernatant using a microplate reader. The controls corresponding to the absence of haemolysis (white) and to a 100% haemolysis consist, respectively, of the addition of 90 μL of PBS buffer and 90 μL of a 2% solution of Triton X-100 to the 90 μL of 2% blood cell solution. Each measurement is carried out in triplicate.
# [3] = In vitro cytotoxicity (MTT); format: cell-based, hamster; settings: hamster, CHO-K1 cells; read-out: lethal dose for 50% of the cells (LD50)
# Procedure: (§4) The effects of the different cyclic pseudopeptides on cell growth are evaluated in sterile 96-well plates. The cells are seeded at 5.10^5 cells per mL of culture medium (100 μL per well). The different pseudopeptides (10 μL per well) diluted in a saline solution are added at the time of seeding at the appropriate concentration (from 1 μg/mL to 1 mg/mL). The incubations are carried out at 37° C. under a humidified atmosphere containing 5% CO2 for 24 or 48 hours.
# (§5) After exposure to the compounds, the cell growth is assessed by measuring the formation of formazan from 3-(4,5-dimethylthiazol-2-yl)-2,5-diphenyltetrazolium (MTT). The absorbance at 540 nm is measured by a Titertek Multiscan MCC/340 microplate reader. Each measurement is carried out in triplicate.
# [4] = system: mouse cell line ascites 302-sp; experiment: In vitro cytotoxicity (MTT); format: cell-based
# Procedure: as §4, §5
# hamster cells (CHO-K1) = experiment: In vitro cytotoxicity (MTT); format: cell-based; settings: at 10 μg/mL
# Procedure: as §4, §5
# rabbit erythrocytes [5] = settings: comparison peptide alternating L and D amino acids; cited from earlier work
compound,measurement,setting,value
"CC(C)C[C@@H]1NC(=O)CN(Cc2ccc(F)c3ccccc23)NC(=O)[C@H](CC(C)C)NC(=O)CN(Cc2cccc3ccccc23)NC(=O)[C@H](CCCCN)NC(=O)CN(CCCCN)NC1=O [4Fluo1Naf, c[-Leu-azaβ^3Lys-Lys-azaβ^3(1)-Nal-Leu-azaβ^3(4F-1)Nal-]]",haemolytic activity,sheep erythrocytes,no significant haemolytic activity
CC1(C)S[C@@H]2[C@H](NC(=O)[C@H](N)c3ccccc3)C(=O)N2[C@H]1C(=O)O [Ampicillin],concentration at which active,Streptococcus aureus,1 µg/mL
same,concentration at which active,Salmonella thyphimurium,1 µg/mL
"CCCCCCCCCCCCN1CC(=O)N[C@@H](Cc2c[nH]c3ccccc23)C(=O)NN(Cc2cccc3ccccc23)CC(=O)N[C@@H](CCCCN)C(=O)NN(CCCCN)CC(=O)N[C@@H](CC2CCCCC2)C(=O)N1 [Chado, c[-Lys-azaβ^3Lys-Cha-azaβ^3Amy-Trp-azaβ^3(1)Nal-]]",activity on the Gram-negative bacteria,[1],no activity
"N=C(N)NCCC[C@@H]1NC(=O)CN(CC2CCCCC2)NC(=O)[C@H](Cc2c[nH]c3ccccc23)NC(=O)CN(Cc2ccc(F)cc2)NC(=O)[C@H](CC2CCCCC2)NC(=O)CN(CCCCN)NC1=O [FluoKil, c[-Arg-azaβ^3Lys-Cha-azaβ^3(4)Fpa-Trp-azaβ^3Cha-]]",haemolytic activity,sheep erythrocytes,no significant haemolytic activity
"CC(C)C[C@@H]1NC(=O)CN(Cc2cccc3ccccc23)NC(=O)[C@H](CC(C)C)NC(=O)CN(Cc2cccc3ccccc23)NC(=O)[C@H](CCCCN)NC(=O)CN(CCCCN)NC1=O [NafNaf, c[-Leu-azaβ^3Lys-Lys-azaβ^3(1)Nal-Leu-azaβ^3(1)Nal-]]",action on the erythrocytes,rabbit erythrocytes [2]; at 20 μg/mL,no action
same,haemolytic activity,rabbit erythrocytes [2]; at the concentrations at which it is bactericidal,no haemolytic activity
same,haemolytic activity,sheep erythrocytes,no significant haemolytic activity
same,CC50,[3],~40 µg/mL
same,LD50,"[4]; ascites 302-sp, compared with hamster cells",slightly lower
same,effect on the cell viability,[4]; at 10 μg/mL,slight effect
same,cytotoxic effect,hamster cells (CHO-K1),no cytotoxic effect
[-(D)Lys-(L)Lys-(D)Leu-(L)Trp-(D)Leu-(L)Trp-],concentration at which haemolytic,rabbit erythrocytes [5],80 µg/mL
